Patent US10357481B2 (MERCK SHARP & DOHME CORP., priority 2015, dated 2019)

Molecular target: T1, human PDE2A1 (Homo sapiens, UniProt O00408)
T1 construct: GST; purchased BPS Bioscience (San Diego, Calif.) 60020; host or cells: insect cells
Test: IMAP FP PDE selectivity panel, human PDE2A1
Assay type: biochemical
Conditions: Lab B; read-out: Human PDE2 Ki (nM) Lab B
How it was run: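 Human PDE2A1 tested alongside PDE1–11 by IMAP fluorescence polarization at room temperature. Substrate was 50 nM FAM-cAMP plus 1000 nM cGMP, buffer pH 7.2 with MgCl2 and DTT, enzyme set for 20% conversion. Ten 3-fold compound dilutions; 60 min reaction, then IMAP binding solution, 1 h, parallel/perpendicular fluorescence read.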

T1 sequence (O00408 1-920 isoform O00408-2): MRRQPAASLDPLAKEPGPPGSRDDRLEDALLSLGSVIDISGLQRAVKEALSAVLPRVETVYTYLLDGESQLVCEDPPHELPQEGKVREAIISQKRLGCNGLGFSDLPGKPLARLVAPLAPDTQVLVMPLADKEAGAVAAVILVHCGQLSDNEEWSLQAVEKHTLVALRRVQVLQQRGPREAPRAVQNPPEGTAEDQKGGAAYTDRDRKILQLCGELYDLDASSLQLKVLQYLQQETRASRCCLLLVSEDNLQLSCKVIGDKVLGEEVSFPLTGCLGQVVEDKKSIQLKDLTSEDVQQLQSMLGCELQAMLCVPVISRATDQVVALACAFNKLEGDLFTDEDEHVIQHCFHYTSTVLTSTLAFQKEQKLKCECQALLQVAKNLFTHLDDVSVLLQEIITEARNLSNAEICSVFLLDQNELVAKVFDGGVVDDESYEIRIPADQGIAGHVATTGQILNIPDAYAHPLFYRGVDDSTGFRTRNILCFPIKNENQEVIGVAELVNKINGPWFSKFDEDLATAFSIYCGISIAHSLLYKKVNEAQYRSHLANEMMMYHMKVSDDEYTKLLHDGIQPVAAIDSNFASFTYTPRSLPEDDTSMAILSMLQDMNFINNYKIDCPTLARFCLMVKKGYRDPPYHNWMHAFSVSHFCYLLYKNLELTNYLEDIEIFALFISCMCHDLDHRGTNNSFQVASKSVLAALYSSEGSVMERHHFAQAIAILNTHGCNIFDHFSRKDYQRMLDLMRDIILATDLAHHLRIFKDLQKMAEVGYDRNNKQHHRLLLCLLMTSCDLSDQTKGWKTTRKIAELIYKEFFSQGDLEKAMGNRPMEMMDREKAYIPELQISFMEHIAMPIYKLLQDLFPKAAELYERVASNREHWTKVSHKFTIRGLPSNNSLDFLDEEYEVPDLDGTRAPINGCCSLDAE

Ki	Compound
167 nM	Cc1cc(NC(c2ccc(OC(F)(F)F)c(F)c2)C2COC2)n2ncnc2n1 (single isomer, unassigned) [Example 230, (S)- or (R)-N-((3-Fluoro-4-(trifluoromethoxy)phenyl)(oxetan-3-yl)methyl)-5-methyl-[1,2,4]triazolo [1,5-a]pyrimidin-7-amine]
> 2960 nM	Cc1cc(NC(c2ccc(OC(F)(F)F)c(F)c2)C(C)(C)CO)n2ncnc2n1 (single isomer, unassigned) [Example 232, (S or S)-3-(3-fluoro-4-(trifluoromethoxy)phenyl)-2,2-dimethyl-3-(5-methyl-[1,2,4]triazolo[1,5-a]pyrimidin-7-ylamino)propan-1-ol]
210 nM	COc1cc(N[C@H](c2ccc(C(F)(F)F)c(F)c2)C(C)(C)O)n2ncnc2n1 (single isomer, unassigned) [Example 236]
1690 nM	COc1cc(N[C@@H](c2ccc(C(F)(F)F)c(F)c2)C(C)(C)O)n2ncnc2n1 (single isomer, unassigned) [Example 237]
> 2960 nM	CN(C)c1cc(N[C@H](c2ccc(C(F)(F)F)c(F)c2)C(C)(C)O)n2ncnc2n1 (single isomer, unassigned) [Example 243]
377 nM	CN(C)c1cc(N[C@@H](c2ccc(C(F)(F)F)c(F)c2)C(C)(C)O)n2ncnc2n1 (single isomer, unassigned) [Example 244]
24 nM	Cc1cc(N(C)C(c2ccc(OC(F)(F)F)c(F)c2)C(C)(C)O)n2ncnc2n1 (single isomer, unassigned) [Example 247, (R)- or (S)-1-(3-Fluoro-4-(trifluoromethoxy)phenyl)-2-methyl-1-(methyl(5-methyl-[1,2,4]triazolo [1,5-a]pyrimidine-7-yl)amino)propan-2-ol]
> 2960 nM	Cc1cc(N(C)C(c2ccc(OC(F)(F)F)c(F)c2)C(C)(C)O)n2ncnc2n1 (single isomer, unassigned) [Example 248, (S)- or (R)-1-(3-Fluoro-4-(trifluoromethoxy)phenyl)-2-methyl-1-(methyl(5-methyl-[1,2,4]triazolo [1,5-a]pyrimidine-7-yl)amino) propan-2-ol]
83 nM	CC(C)(N)C(Nc1cc(C(F)(F)F)nc2ncnn12)c1ccc(C(F)(F)F)c(F)c1 (single isomer, unassigned) [Example 253, (R)- or (S)-1-(3-Fluoro-4-(trifluoromethyl)phenyl)-2-methyl-N^1-(5-(trifluoromethyl)-[1,2,4]triazolo [1,5-a]pyrimidin-7-yl) propane-1,2-diamine]
> 2960 nM	CC(C)(N)C(Nc1cc(C(F)(F)F)nc2ncnn12)c1ccc(C(F)(F)F)c(F)c1 (single isomer, unassigned) [Example 254, (S)- or (R)-1-(3-Fluoro-4-(trifluoromethyl)phenyl)-2-methyl-N^1-(5-(trifluoromethyl)-[1,2,4]triazolo [1,5-a]pyrimidin-7-yl) propane-1,2-diamine]
14 nM	Cc1cc(O[C@@H](c2ccc(C(F)(F)F)cc2)C(C)(C)C)n2ncnc2n1 (single isomer, unassigned) [Example 260]
> 2960 nM	Cc1cc(O[C@H](c2ccc(C(F)(F)F)cc2)C(C)(C)C)n2ncnc2n1 (single isomer, unassigned) [Example 261]
183 nM	Cc1cc(N[C@H](c2ccc(C(F)(F)F)c(F)c2)C(C)(C)O)nc2ncnn12 (single isomer, unassigned) [Example 291]
> 2960 nM	Cc1cc(N[C@@H](c2ccc(C(F)(F)F)c(F)c2)C(C)(C)O)nc2ncnn12 (single isomer, unassigned) [Example 292]
636 nM	CC(C)c1cc(NC(c2ccc(C(F)(F)F)cc2)C(C)(C)O)n2ncnc2n1 (stereo in doubt) [Example 156, (1S)-2-Methyl-1-{[5-(1-methylethyl)[1,2,4]triazolo[1,5-a]pyrimidin-7-yl]amino}-1-[4-(trifluoromethyl)phenyl]propan-2-ol]
37 nM	CC(C)(O)C(Nc1cc(C2CC2)nc2ncnn12)c1ccc(C(F)(F)F)cc1 (stereo in doubt) [Example 157, (1S)-1-[(5-Cyclopropyl[1,2,4]triazolo[1,5-a]pyrimidin-7-yl)amino]-2-methyl-1-[4-(trifluoromethyl)phenyl]propan-2-ol]
~2340 nM	CC(C)(C)c1cc(NC(c2ccc(C(F)(F)F)cc2)C(C)(C)O)n2ncnc2n1 (stereo in doubt) [Example 158, (1S)-1-[(5-tert-Butyl[1,2,4]triazolo[1,5-a]pyrimidin-7-yl)amino]-2-methyl-1-[4-(trifluoromethyl)phenyl]propan-2-ol]
6 nM	Cc1cc(NC(c2ccc(OC(F)(F)F)cc2F)C(C)(C)O)n2nc(N)nc2n1 (stereo in doubt) [Example 258, (1S)-1-[(2-Amino-5-methyl[1,2,4]triazolo[1,5-a]pyrimidin-7-yl)amino]-1-[2-fluoro-4-(trifluoromethoxy)phenyl]-2-methylpropan-2-ol]
175 nM	Cc1cc(N[C@H](C)c2ccc(C(F)(F)F)cc2)n2ncnc2n1 [Example 1, 5-Methyl-N-{(1R)-1-[4-(trifluoromethyl)phenyl]ethyl}[1,2,4]triazolo[1,5-a]pyrimidin-7-amine]

Ki	Compound
~1540 nM	Cc1cc(N[C@@H](C)c2ccc(C(F)(F)F)cc2)n2ncnc2n1 [Example 2, 5-Methyl-N-{(1S)-1-[4-(trifluoromethyl)phenyl]ethyl}[1,2,4]triazolo[1,5-a]pyrimidin-7-amine]
115 nM	Cc1cc(N[C@H](C)c2ccc(C(F)(F)F)c(F)c2)n2ncnc2n1 [Example 3, N-{(1R)-1-[3-Fluoro-4-(trifluoromethyl)phenyl]ethyl}-5-methyl[1,2,4]triazolo[1,5-a] pyrimidin-7-amine]
108 nM	Cc1cc(N[C@H](C)c2ccc(CC(F)(F)F)cc2)n2ncnc2n1 [Example 4, 5-Methyl-N-{(1R)-1-[4-(2,2,2-trifluoroethyl)phenyl]ethyl}[1,2,4] triazolo[1,5-a]pyrimidin-7-amine]
113 nM	Cc1cc(N[C@H](C)c2ccc(C(F)(F)F)c(Cl)c2)n2ncnc2n1 [Example 5, N-{(1R)-1-[3-Chloro-4-(trifluoromethyl)phenyl]ethyl}-5-methyl[1,2,4]triazolo[1,5-a] pyrimidin-7-amine]
482 nM	Cc1cc(N[C@H](C)c2cc(F)c(C(F)(F)F)cc2F)n2ncnc2n1 [Example 6, N-{(1R)-1-[2,5-Difluoro-4-(trifluoromethyl)phenyl]ethyl}-5-methyl[1,2,4]triazolo[1,5-a] pyrimidin-7-amine]
132 nM	Cc1cc(N[C@H](C)c2ccc(OC(F)(F)F)cc2)n2ncnc2n1 [Example 7, 5-Methyl-N-{(1R)-1-[4-(trifluoromethoxy)phenyl]ethyl} [1,2,4]triazolo[1,5-a]pyrimidin-7-amine]
57 nM	Cc1cc(N[C@H](C)c2ccc(OC(F)(F)F)c(F)c2)n2ncnc2n1 [Example 8, N-{(1R)-1-[3-Fluoro-4-(trifluoromethoxy)phenyl]ethyl}-5-methyl[1,2,4]triazolo[1,5-a] pyrimidin-7-amine]
138 nM	Cc1cc(N[C@H](C)c2ccc(OC(F)(F)F)c(Cl)c2)n2ncnc2n1 [Example 9, N-{(1R)-1-[3-Chloro-4-(trifluoromethoxy)phenyl]ethyl}-5-methyl[1,2,4]triazolo[1,5-a] pyrimidin-7-amine]
21 nM	Cc1cc(N[C@H](C)c2ccc(SC(F)(F)F)cc2)n2ncnc2n1 [Example 10, 5-Methyl-N-[(1R)-1-{4-[(trifluoromethyl)sulfanyl]phenyl}ethyl][1,2,4]triazolo[1,5-a]pyrimidin-7-amine]
18 nM	Cc1cc(N[C@H](C)c2ccc(SC(F)(F)F)c(F)c2)n2ncnc2n1 [Example 11, N-[(1R)-1-{3-Fluoro-4-[(trifluoromethyl)sulfanyl]phenyl}ethyl]-5-methyl[1,2,4]triazolo [1,5-a]pyrimidin-7-amine]
68 nM	Cc1cc(N[C@H](C)c2ccc(S(F)(F)(F)(F)F)cc2)n2ncnc2n1 [Example 12, 5-Methyl-N-{(1R)-1-[4-(pentafluoro-λ^6-sulfanyl)phenyl)ethyl} [1,2,4]triazolo[1,5-a]pyrimidin-7-amine]
122 nM	Cc1cc(N[C@H](C)c2ccc(C(C)C)cc2)n2ncnc2n1 [Example 13, 5-Methyl-N-{(1R)-1-[4-(1-methylethyl)phenyl]ethyl}[1,2,4] triazolo[1,5-a]pyrimidin-7-amine]
48 nM	Cc1cc(N[C@H](C)c2ccc(C3CC3)c(F)c2)n2ncnc2n1 [Example 14, N-[(1R)-1-(4-Cyclopropyl-3-fluorophenyl)ethyl]-5-methyl[1,2,4]triazolo[1,5-a] pyrimidin-7-amine]
173 nM	Cc1cc(N[C@H](C)c2ccc(C3(C)CC3)cc2)n2ncnc2n1 [Example 15, 5-Methyl-N-{(1R)-1-[4-(1-methylcyclopropyl)phenyl]ethyl} [1,2,4]triazolo[1,5-a]pyrimidin-7-amine]
61 nM	CC[C@@H](Nc1cc(C)nc2ncnn12)c1ccc(C(F)(F)F)c(F)c1 [Example 16, N-{(1R)-1-[3-Fluoro-4-(trifluoromethyl)phenyl]propyl}-5-methyl[1,2,4]triazolo[1,5-a] pyrimidin-7-amine]
15 nM	CC[C@@H](Nc1cc(C)nc2ncnn12)c1ccc(SC(F)(F)F)cc1 [Example 17, 5-Methyl-N-[(1R)-1-{4-[(trifluoromethyl)sulfanyl]phenyl}propyl][1,2,4]triazolo[1,5-a] pyrimidin-7-amine]
15 nM	CC[C@@H](Nc1cc(C)nc2ncnn12)c1ccc(SC(F)(F)F)c(F)c1 [Example 18, N-[(1R)-1-{3-Fluoro-4-[(trifluoromethyl)sulfanyl]phenyl}propyl]-5-methyl[1,2,4]triazolo[1,5-a]pyrimidin-7-amine]
36 nM	Cc1cc(N[C@@H](c2ccc(C(F)(F)F)cc2)C(C)C)n2ncnc2n1 [Example 19, 5-Methyl-N-{(1R)-2-methyl-1-[4-(trifluoromethyl)phenyl]propyl} [1,2,4]triazolo[1,5-a]pyrimidin-7-amine]
